This is an account of results in patent publication US20260159512A1, “BCAT2 INHIBITORS” (AGIOS PHARMACEUTICALS, INC., priority 2021, published 2026).

As a reminder, the IC50 is the concentration needed to halve the response being measured.

Settings in all cases: average where tested multiple times
Experiment [1] deals with T1, BCAT2 (Homo sapiens, UniProt O15382).
T1 sequence (O15382 28-392): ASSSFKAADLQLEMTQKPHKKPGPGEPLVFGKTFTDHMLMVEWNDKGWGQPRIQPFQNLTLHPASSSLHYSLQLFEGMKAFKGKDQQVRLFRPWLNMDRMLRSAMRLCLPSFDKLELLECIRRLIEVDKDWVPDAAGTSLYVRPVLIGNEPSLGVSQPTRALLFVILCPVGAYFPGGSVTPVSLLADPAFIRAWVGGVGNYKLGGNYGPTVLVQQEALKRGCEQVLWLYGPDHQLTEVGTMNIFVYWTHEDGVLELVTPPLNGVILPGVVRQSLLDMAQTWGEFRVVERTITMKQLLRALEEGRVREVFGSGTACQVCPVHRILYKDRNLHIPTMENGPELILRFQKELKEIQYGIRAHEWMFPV
In words: BCAT2 in vitro enzyme inhibition assay (resazurin/diaphorase-coupled fluorescence). Format: biochemical. The gist of the method: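 Coupled fluorescence readout: glutamate formed from L-leucine/α-ketoglutarate transamination drives GDH/NAD/diaphorase reduction of resazurin (Ex 540/Em 590). Human BCAT2 was first exposed 1 h at room temperature to compound, top final 100 μM in 3-fold, 10-point series; substrate reaction ran 1 h before SDS quench, in technical duplicate with DMSO max and enzyme-free min controls.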
(Alamar Blue is a resazurin reagent that responds to reducing activity.)

For another experiment, the target named is T2, hBCAT1 (Homo sapiens, UniProt P54687).
T2 sequence (P54687 1-386): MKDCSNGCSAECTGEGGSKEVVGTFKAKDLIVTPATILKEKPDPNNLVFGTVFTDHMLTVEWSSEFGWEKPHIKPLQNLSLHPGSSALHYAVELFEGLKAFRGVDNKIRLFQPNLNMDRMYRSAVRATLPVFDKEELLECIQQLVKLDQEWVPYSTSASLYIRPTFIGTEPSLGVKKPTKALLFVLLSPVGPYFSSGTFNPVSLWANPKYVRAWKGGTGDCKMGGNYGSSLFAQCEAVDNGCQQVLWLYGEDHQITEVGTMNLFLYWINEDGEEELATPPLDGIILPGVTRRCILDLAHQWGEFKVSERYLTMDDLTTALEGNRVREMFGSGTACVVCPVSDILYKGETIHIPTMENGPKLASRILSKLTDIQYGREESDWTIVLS
As to the kind of experiment: BCAT1 in vitro enzyme inhibition assay (resazurin/diaphorase-coupled fluorescence). The format is biochemical. The gist of the method: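 Ten-point, 3-fold compound series (top final 100 μM, delivered 1:50 from 50× DMSO stocks) tested against hBCAT1. Inhibition detected via diaphorase-coupled resazurin fluorescence, duplicate wells, with values from repeated runs averaged.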

Experiment [2] addresses T1, BCAT2. As to the kind of experiment: BCAT2 in vitro cell inhibition using engineered A549 cells (KMV cell assay, 13C6-KMV by LC-MS/MS). Format: cell-based. Set-up: The result was an engineered A549 cell line that expressed endogenous BCAT2; endogenous in cells; host or cells: A549 cells with MUT and BCAT1 knocked out by CRISPR/CAS9.

Consider `CO[C@H]1C[C@@H](NC(=O)c2ncc(Cl)s2)C[C@@H](n2c(CC(C)C)nc3cnc(-c4nc[nH]n4)cc32)C1` (stereo in doubt) [Example 432, 5-chloro-N-((1S,3R,5S)-3-(2-isobutyl-6-(1H-1,2,4-triazol-3-yl)-1H-imidazo[4,5-c]pyridin-1-yl)-5-methoxycyclohexyl)thiazole-2-carboxamide], for which the figures for the concentration for half-maximal inhibition (IC50) on BCAT2 [1], on hBCAT1 and on BCAT2 [2] were ≤ 100 nM, < 500 nM and ≤ 100 nM, respectively.

Take `C#Cc1cnc(C(=O)N[C@H]2CCC[C@@H](n3c(-c4ncccc4F)nc4cnc(-n5ccnn5)cc43)C2)s1` [Example 36, 5-ethynyl-N-((1S,3R)-3-(2-(3-fluoropyridin-2-yl)-6-(1H-1,2,3-triazol-1-yl)-1H-imidazo[4,5-c]pyridin-1-yl)cyclohexyl)thiazole-2-carboxamide]: the IC50 against BCAT2 [1] was ≤ 100 nM; at hBCAT1, 500 to 1000 nM; on BCAT2 [2] it was 100 to 500 nM.

Consider `CC(C)Cc1nc2cnc(-c3cccc(CO)n3)cc2n1[C@@H]1CCC[C@H](NC(=O)c2ncc(Cl)s2)C1` [Example 311, 5-chloro-N-((1S,3R)-3-(6-(6-(hydroxymethyl)pyridin-2-yl)-2-isobutyl-1H-imidazo[4,5-c]pyridin-1-yl)cyclohexyl)thiazole-2-carboxamide], for which the values for the IC50 against BCAT2 [1], against hBCAT1 and at BCAT2 [2] were ≤ 100 nM, 1000 to 5000 nM and 500 to 1000 nM, respectively.

Consider `CO[C@@H]1C[C@@H](NC(=O)c2ncc(Cl)s2)C[C@@H](n2c(CC(C)C)nc3cnc(-c4ccccn4)cc32)C1` (stereo in doubt) [Example 426, 5-chloro-N-((1S,3R,5R)-3-(2-isobutyl-6-(pyridin-2-yl)-1H-imidazo[4,5-c]pyridin-1-yl)-5-methoxycyclohexyl)thiazole-2-carboxamide], for which the values for the IC50 against BCAT2 [1], against hBCAT1 and at BCAT2 [2] were ≤ 100 nM, 500 to 1000 nM and 100 to 500 nM, respectively.

As to `O=C(N[C@H]1C[C@H](O)C[C@@H](n2c(-c3ccccc3F)nc3cnccc32)C1)c1ncc(Cl)s1` [Example 272, 5-chloro-N-((1R,3S,5S)-3-(2-(2-fluorophenyl)-1H-imidazo[4,5-c]pyridin-1-yl)-5-hydroxycyclohexyl)thiazole-2-carboxamide], the IC50 at BCAT2 [1] was ≤ 100 nM; against hBCAT1, 500 to 1000 nM; on BCAT2 [2], 500 to 1000 nM.

With `CC(C)(C)Cc1nc2cnc(-c3ccccn3)cc2n1[C@@H]1CCC[C@H](NC(=O)c2ncc(Cl)s2)[C@H]1O` [Example 389, 5-chloro-N-((1S,2R,3R)-2-hydroxy-3-(2-neopentyl-6-(pyridin-2-yl)-1H-imidazo[4,5-c]pyridin-1-yl)cyclohexyl)thiazole-2-carboxamide], the IC50 at BCAT2 [1] is ≤ 100 nM; against hBCAT1, < 500 nM; against BCAT2 [2], ≤ 100 nM.

On to `Nc1cccc(-c2cc3c(cn2)nc(-c2ccccc2F)n3[C@@H]2CCC[C@H](NC(=O)c3ncc(Cl)s3)C2)n1` [Example 105, N-((1S,3R)-3-(6-(6-aminopyridin-2-yl)-2-(2-fluorophenyl)-1H-imidazo[4,5-c]pyridin-1-yl)cyclohexyl)-5-chlorothiazole-2-carboxamide], for which the values for the IC50 against BCAT2 [1], against hBCAT1 and on BCAT2 [2] were ≤ 100 nM, < 500 nM and ≤ 100 nM, respectively.

On to `CC1(Cc2nc3cnc(-c4nc[nH]n4)cc3n2[C@@H]2CCC[C@H](NC(=O)c3ncc(Cl)s3)C2)CC1` [Example 379, 5-chloro-N-((1S,3R)-3-(2-((1-methylcyclopropyl)methyl)-6-(1H-1,2,4-triazol-3-yl)-1H-imidazo[4,5-c]pyridin-1-yl)cyclohexyl)thiazole-2-carboxamide], for which the IC50 against BCAT2 [1] is ≤ 100 nM; against hBCAT1, < 500 nM; against BCAT2 [2], ≤ 100 nM.

Turning to `CO[C@H]1C[C@H](NC(=O)c2ncc(Cl)s2)C[C@H](n2c(-c3ccccc3F)nc3cnc(N4CCC[C@H]4CO)cc32)C1` [Example 429, 5-chloro-N-((1R,3S,5S)-3-(2-(2-fluorophenyl)-6-((S)-2-(hydroxymethyl)pyrrolidin-1-yl)-1H-imidazo[4,5-c]pyridin-1-yl)-5-methoxycyclohexyl)thiazole-2-carboxamide], the IC50 is ≤ 100 nM against BCAT2 [1], 500 to 1000 nM at hBCAT1 and ≤ 100 nM against BCAT2 [2].
